Reference: US20070254309A1, “Methods for Assessing Embryo Viability” (Northern Sydney and Central Coast Area Health Service, priority 2006, published 2007)

Test system: p53
Test: Western blot quantitation of p53 released into embryo culture media
Format: cell-based, mouse
Conditions: embryos cultured in modHTF in the absence of Paf, compared with 0.1 μM Paf supplement; FIG. 3
Method: Embryos were collected and washed 3 times in cold PBS and transferred in a maximum volume of 1.5 μl PBS. Embryo culture media aliquots had embryos and all cells removed and then subjected to freeze drying. The lyophilized proteins were redissolved in 1.5 μl of water. Embryo or reconstituted culture media was mixed with 1.5 μl of 2X extraction buffer (2X PBS, 2% Triton X-100, 24 mM deoxycholic acid, 0.2% sodium dodecyl sulfate, 20 mM NaF, 20 mM Na4P2O7, 2 mM PMSF, 3.08 μM Aprotinin, 42 μM Leupeptin and 2.91 μM Pepstatin A-all from Sigma). The embryos were lysed by three cycles of freezing in liquid nitrogen and thawing (with vortexing). […]
Proteins were blotted into PVDF membranes (Hybond-P, Amersham Pharmacia) in a semi-dry blotting apparatus overnight using transfer buffer (12 mM Tris PH 7.0, 96 mM Glycine and 20% methanol). […] Membranes were probed with 1:500 diluted anti P53 antibody overnight at 4° C. in 2.5% skim milk, and detected with 1:500 diluted horse radish peroxidase (Jackson ImmunoResearch Laboratories, West Grove, Pa., USA) conjugated mouse antibody. […]
p53 was detected by Western blot as described above and densitometry was performed using Scion Image software (Scion Corporation, Frederick, Md., USA).

## 1-o-octadecyl/hexadecyl-2-acetyl-sn-glycero-3-phosphocholine [Paf]
  extra-embryonic concentration of p53: higher
